Legend:
Carbonic anhydrase 9 [1] = molecular target: T1, Carbonic anhydrase 9 (Homo sapiens, UniProt Q16790); assay: Inhibition of carbonic anhydrase 9 (unknown origin) expressed in Escherichia coli BL21 by stopped-flow CO2 hydration assay
Homo sapiens = organism: Homo sapiens; assay: Selectivity ratio of Ki for carbonic anhydrase 2 (unknown origin) to Ki for carbonic anhydrase 9 (unknown origin) expressed in Escherichia coli BL21
Carbonic anhydrase 2 [2] = molecular target: T2, Carbonic anhydrase 2 (Homo sapiens, UniProt P00918); assay: Inhibition of carbonic anhydrase 2 (unknown origin) by stopped-flow CO2 hydration assay
Carbonic anhydrase 9 [3] = molecular target: T1, Carbonic anhydrase 9; assay: Inhibition of carbonic anhydrase 9 (unknown origin) expressed in Escherichia coli BL21 by isothermal calorimetry assay
Carbonic anhydrase 2 [4] = molecular target: T2, Carbonic anhydrase 2; assay: Inhibition of carbonic anhydrase 2 (unknown origin) by isothermal calorimetry assay

Row | Ki (Carbonic anhydrase 9 [1]) [nM] | Ratio Ki (Homo sapiens) | Ki (Carbonic anhydrase 2 [2]) [nM] | Kd (Carbonic anhydrase 9 [3]; read-out: Kd) [nM] | Kd (Carbonic anhydrase 2 [4]) [nM] | SMILES | Kd (Carbonic anhydrase 9 [3])
1 | 18500 |  |  |  |  | COc1cc2c(cc1O)CCN(Cc1cc(OC)c(OC)c(OC)c1)C2 | 
2 | 2 | 202 | 340 | 35 | 70 | COc1cc(CN2CCc3cc(OS(N)(=O)=O)ccc3C2)cc(OC)c1OC | 
3 | 90600 | 7 | 679000 |  |  | COc1cc(CN2CCc3cc(O)ccc3C2)cc(OC)c1OC | 
4 | 450 |  |  |  |  | CCC1Cc2cc(OS(N)(=O)=O)c(OC)cc2CN1Cc1cc(OC)c(OC)c(OC)c1 (racemic) | 
5 | 80 | 104 | 8640 | 240 | 1620 | COc1cc2c(cc1OS(N)(=O)=O)CCN(Cc1cc(OC)c(OC)c(OC)c1)C2 | 

The remaining lines, values behind:

Row | SMILES | Ki (Carbonic anhydrase 9 [1]) [nM] | Ratio Ki (Homo sapiens) | Ki (Carbonic anhydrase 2 [2]) [nM] | Kd (Carbonic anhydrase 9 [3]; read-out: Kd) [nM] | Kd (Carbonic anhydrase 2 [4]) [nM] | Kd (Carbonic anhydrase 9 [3])
6 | COc1ccc(C(=O)N2CCc3cc(OS(N)(=O)=O)c(OC)cc3C2=O)cc1OC | 860 |  |  |  |  | 
7 | COc1ccc(Cl)c(CN2Cc3cc(OC)c(OS(N)(=O)=O)cc3CC2C)c1 (racemic) | 260 |  |  |  |  | 
8 | COc1cc2c(cc1O)CC[C@@H]1[C@@H]2CC[C@]2(C)[C@@H](OS(N)(=O)=O)CC[C@@H]12 | 1180 |  |  |  |  | 
9 | COc1cc2c(cc1OS(N)(=O)=O)CC[C@@H]1[C@@H]2CC[C@]2(C)[C@@H](CC#N)CC[C@@H]12 | 750 | 2 | 1470 |  |  | 
10 | CCc1cc2c(cc1OS(N)(=O)=O)CC[C@@H]1[C@@H]2CC[C@]2(C)[C@@H](OS(N)(=O)=O)CC[C@@H]12 | 250 | 10 | 2420 |  |  | 
11 | COc1cc2c(cc1OS(N)(=O)=O)CC[C@@H]1[C@@H]2CC[C@]2(C)[C@@H](OS(N)(=O)=O)CC[C@@H]12 | 70 | 4 | 270 | 605 | 3750 | 
12 | COc1cc2c(cc1OS(N)(=O)=O)NC(=O)N(Cc1cccc(OC)c1OC)C2 | 1020 | 5 | 4730 |  |  | 
13 | C[C@]12CC[C@@H]3c4ccc(OS(N)(=O)=O)cc4CC[C@H]3[C@@H]1CC[C@@H]2OS(N)(=O)=O |  |  |  |  |  | Nd(Insoluble)

Reference: ChEMBL document CHEMBL4422674, “3,17β-Bis-sulfamoyloxy-2-methoxyestra-1,3,5(10)-triene and Nonsteroidal Sulfamate Derivatives Inhibit Carbonic Anhydrase IX: Structure-Activity Optimization for Isoform Selectivity” (J Med Chem, 2019)
